In patent publication US20160067247A1, “NOVEL USE” (GlaxoSmithKline Intellectual Property (No.2) Limited, priority 2012, published 2016):
Where two headings read alike, the source gives them in different places.

How the values were obtained:
[1] = tested on: AKT phosphorylation (Ser 473); assay: FCS induced AKT phosphorylation (Ser473) in IPF primary human lung fibroblasts, MSD assay (Example 1); type: cell-based; conditions: Fibroblast, 0.5 h, fibroblasts from n=4 IPF lungs, 10% FCS, 30 minutes, geometric mean (95% CI 0.83-8 nM), read-out: IC50 for inhibition of FCS induced AKT phosphorylation
Protocol: Phosphorylation of AKT is widely accepted as an indication of PI3-kinase activity, and is utilised here to obtain an IC50 for the effect of 2,4-difluoro-N-{2-(methyloxy)-5-[4-(4-pyridazinyl)-6-quinolinyl]-3-pyridinyl}benzenesulfonamide on primary human lung fibroblasts isolated from the IPF patients, in addition to macrophages isolated from IPF bronchoalveolar lavage (BALF).
Fibroblasts are seeded in 96 well plates at a density of 10,000 cells per well. Following 24 hours of serum starvation, fibroblasts are pre-incubated for 15 minutes in serum free buffer containing a range of concentrations of 2,4-difluoro-N-{2-(methyloxy)-5-[4-(4-pyridazinyl)-6-quinolinyl]-3-pyridinyl}benzenesulfonamide (50 μl volumes per well, comprising 1:10 dilutions of inhibitor ranging from [3×10^−12M] to [3×10^−7M] in serum free DMEM). Fibroblasts are stimulated by the addition of foetal calf serum (FCS) to a final volume of 10%. 30 minutes after stimulation, supernatants are rapidly decanted, and the cell plate placed on ice. 35 μl of 1× Complete Lysis buffer is added to each well and incubated for 10 minutes at 4° C., and stored at −80° C. prior to further analysis. […] The assay protocol is completed as per manufacturer's instructions and plates analysed on an MSD SECTOR Imager. Data are read out as the % of total AKT phosphorylated at position Ser473.

[2] = tested on: primary human lung fibroblasts; assay: 72 hour cell population growth, MTS assay (CellTiter 96 AQueous); type: cell-based; conditions: for IC50: Homo sapiens, Fibroblast, 72 h, 10% FBS, read-out: mean pIC50, inhibition of cell growth (MTS) (converted)
Protocol: Primary human fibroblasts were isolated by explant culture from non-IPF lung tissue, obtained post mortem following sudden trauma, and IPF lung tissue obtained from the lungs of IPF patients which were removed for transplantation or biopsy. Explants were cultured in DMEM containing high glucose and sodium pyruvate (PAA laboratories, catalogue #E15-011) with penicillin/streptomycin (Sigma #P4333), amphotericin B (Sigma #A2942), L-glutamine (Gibco #25030) and 20% FBS (foetal bovine serum, Lonza, catalogue #14-801F, Lot #1SB003) at 37° C., 100% humidity, 10% CO2. Cells were designated non-IPF (UCL marked 0110 and 0610) and IPF (UCL marked 0207, 0208, 0308, 0507 and 0508) based on medical diagnosis.
Human lung primary fibroblast cell lines were cultured in DMEM containing high glucose and sodium pyruvate supplemented with L-glutamine, penicillin/streptomycin and 10% FBS (complete DMEM) at 37° C., 100% humidity, 10% CO2. Cells were split into T175 flasks (NUNC #159910) 2 to 3 days prior to assay set-up at a density which yields approximately 70-80% confluence at time of harvest for assay. […]
For reading 20 μL of CellTiter 96™ AQueous non-radioactive cell growth assay (MTS) reagent (Promega #G5430) was added to all wells. Plates were incubated for a further 2 hours at 37° C., 100% humidity, 10% CO2 then read at 490 nm on a Versamax microplate reader using Softmax Pro v5 software. Readings were corrected for FBS discoloration as per manufacturer's instructions, by the subtraction of values from media control (no cell) wells.
The maximum fitted (upper asymptote) value for each experiment and used as the 100% reference response. The MTS signal (with media background values subtracted) in the presence of increasing log Molar concentrations of 2,4-difluoro-N-{2-(methyloxy)-5-[4-(4-pyridazinyl)-6-quinolinyl]-3-pyridinyl}benzenesulfonamide were expressed as a % of the maximum asymptote. […]
In a subset of experiments, where cell growth was measured in parallel with activation of caspase 3/7, T0 readings were taken when serum free medium was changed to 10% FBS and compound added. […]

COc1ncc(-c2ccc3nccc(-c4ccnnc4)c3c2)cc1NS(=O)(=O)c1ccc(F)cc1F [2,4-difluoro-N-{2-(methyloxy)-5-[4-(4-pyridazinyl)-6-quinolinyl]-3-pyridinyl}benzenesulfonamide] gave an IC50 [1] of 2.58 nM, an IC50 ([2]; IPF fibroblasts, n=5 cell lines (+/-0.1 SEM)) of 31.6 nM and an IC50 ([2]; primary human non-IPF fibroblasts, n=2 lines (±0.2 SEM)) of 20 nM. For the same molecule, the “concentration at which MTS signal with 10% FBS appeared lower than no FBS controls (reduction in cell number, potentially indicative of cell death)” value ([2]; fibroblasts) was > 30 nM.
